“And” between values parts separate entries of the source, which are not always exact repeats. Equal entries are not always repeated.
Key:
Format in all cases: cell-based, human
[1] = test system: cord blood-derived CD56^+ NK cells; assay: Cord blood-derived NK cell culture on OP9 native or OP9-DL1 stromal cells with IL-15 with or without IL-21; FACS for CD57 and SYK
Protocol: OP9 stromal cells transduced with either the empty MigR1 retroviral vector (OP9 native) or with the MigR1 retroviral vector containing the Delta-like 1 gene (OP9-DL1) (Schmitt et al. Immunity. 2002; 17(6):749-756) were cultured in MEMα media+20% fetal bovine serum (FBS) at a concentration of 4×10^5 cells/well in 24-well plates for two days to allow for cell adherence. Plates were then irradiated with 2,000 cGy to stop cell proliferation.
(§1) Mononuclear cells were isolated from whole cord blood by density gradient centrifugation. T cells and B cells were depleted by positive magnetic selection using anti-CD3 and anti-CD19 microbeads, respectively. CD3/CD19-depleted cells were then added to irradiated OP9 cells at a concentration of 5×10^5 cells/well and cultured for 14 days in RPMI media+10% FBS supplemented with either 1 ng/mL IL-15 or 10 ng/mL IL-15 with or without 50 ng/mL IL-21.
(§2) Cord blood-derived NK cells were analyzed before culture and after 7 and 14 days of culture by fluorescence activated cell sorting (FACS) using the following extracellular and intracellular antibodies: BV785-conjugated anti-CD3 (BioLegend, San Diego, CA), PE-Cy7-conjugated anti-CD56 (BioLegend, San Diego, CA), BV605-conjugated anti-CD57 (BioLegend, San Diego, CA), APC-conjugated SYK (eBioscience, San Diego, CA), and PE-conjugated anti-PLZF (BD Biosciences, San Jose, CA).
The Notch signaling pathway plays an essential role in effector CD8^+ T cell differentiation and controls the acquisition of effector function (Backer et al. Nat Immunol. 2014; 15(12):1143-1151). To determine if Notch signaling could play a role in driving the differentiation and expansion of terminally differentiated and adaptive NK cell subsets, CD3/CD19-depleted mononuclear cells were cultured from cord blood on native OP9 stromal cells or OP9 stromal cells stably transduced with the Notch ligand DL1 in the presence of low-dose (1 ng/mL) IL-15 or high-dose (10 ng/mL) IL-15 with or without IL-21 (50 ng/mL). Cells were harvested at days 7 and 14, and CD56^+ NK cells were analyzed by fluorescence activated cell sorting (FACS) for expression of CD57 and SYK. Prior to culture, an average of 2.13%±0.44 of CD56^+ NK cells expressed CD57.

[2] = test system: NK cells from CMV seropositive donors; assay: Culture of CD3/CD19-depleted PBMCs with IL-15; FACS for CD45RA/CD45RO; details: autologous monocytes, 10 ng/mL IL-15, 7 days
Protocol: CD3/CD19-depleted peripheral blood mononuclear cells from typed healthy CMV seronegative and seropositive donors were cultured with 10 ng/mL IL-15. After 7 days, cells were harvested and analyzed by FACS. Shown are representative phenotypes from one CMV seropositive and one CMV seronegative donor both before and after culture (top). Cumulative data showing the percentages of CD3^−CD56^+CD45RA^−CD45RO^+ NK cells from five CMV seronegative and eight CMV seropositive donors pre- and post-culture are shown (bottom). Data are representative of two independent experiments. Paired student's t-tests were used to determine statistical significance within groups, and unpaired student's t-tests were used to determine statistical significance between groups (CMV seropositive and CMV seronegative). *p≤0.05, **p≤0.01, ***p≤0.001.
CD3/CD19-depleted peripheral blood mononuclear cells from typed healthy CMV seronegative and seropositive donors were cultured with 10 ng/mL IL-15. Percentages of CD3^−CD56^+CD45RA^−CD45RO^+ NK cells from CMV seronegative and CMV seropositive donors pre- and post-culture were measured using FACS.

[3] = test system: PLZF expression in cord blood-derived CD56^dim NK cells; assay: Intracellular PLZF staining of cord blood-derived CD56^dim NK cells after 14 days in culture; details: high-dose IL-15, IL-21 where added
Protocol: FIG. 6A. FACS plots of intracellular PLZF expression in cord blood-derived CD56^dim NK cells from a representative donor after 14 days in the indicated culture conditions. FIG. 6B. Cumulative data showing the percentage of PLZF″ NK cells after 14 days in each culture condition from 6 donors. Two independent experiments were performed. Error bars represent SEM.
as §1, §2
Transcriptional silencing of the transcription factor promyelocytic leukemia zinc finger (PLZF) is a hallmark of adaptive NK cells that expand in response to CMV infection (Schlums et al. Immunity. 2015; 42(3):443-456). Intracellular staining for PLZF was performed in NK cells from freshly isolated mononuclear cells and from cells that were cultured for 14 days in vitro. Freshly isolated CD56^dimSYK^− NK cells from cord blood were predominantly PLZF-positive (99.3%±0.10). […] Therefore, IL-21 drives down PLZF expression in CD56^dimSYK^− NK cells, causing these cells to acquire adaptive characteristics (FIG. 6).

[4] = OP9-DL1, high-dose (10 ng/mL) IL-15, day 7
[5] = OP9-DL1, high-dose (10 ng/mL) IL-15, day 14
[6] = OP9-DL1, low-dose (1 ng/mL) IL-15, day 7
[7] = OP9-DL1, low-dose (1 ng/mL) IL-15, day 14
[8] = OP9 native, high-dose (10 ng/mL) IL-15, day 7
[9] = OP9 native, high-dose (10 ng/mL) IL-15, day 14
[10] = OP9 native, low-dose (1 ng/mL) IL-15, day 7
[11] = OP9 native, low-dose (1 ng/mL) IL-15, day 14

With “IL-15: cytokine in culture medium, low-dose 1 ng/mL or high-dose 10 ng/mL” the “percentage of CD56^+ NK cells expressing CD57” value [1, 4] was 1.30%±0.31, the “percentage of CD56^+ NK cells lacking SYK” value [1, 4] was 0.34%±0.04 and 0.67%±0.10 and the “percentage of CD56^+ NK cells expressing CD57” value [1, 5] was 0.86%±0.44. For the same substance, the “percentage of CD56^+ NK cells lacking SYK” value [1, 5] was 0.43%±0.15, the “percentage of CD56^+ NK cells expressing CD57” value [1, 6] was 0.91%±0.34 and the “percentage of CD56^+ NK cells lacking SYK” value [1, 6] was 0.25%±0.06. For the same substance, the “percentage of CD56^+ NK cells expressing CD57” value [1, 7] was 0.93%±0.40, the “percentage of CD56^+ NK cells lacking SYK” value [1, 7] was 0.17%±0.08 and the “percentage of CD56^+ NK cells expressing CD57” value [1, 8] was 0.70%±0.23. For the same substance, the “percentage of CD56^+ NK cells lacking SYK” value [1, 8] was 0.21%±0.05, the “percentage of CD56^+ NK cells expressing CD57” value [1, 9] was 0.22%±0.10 and the “percentage of CD56^+ NK cells lacking SYK” value [1, 9] was 0.43%±0.15. The “percentage of CD56^+ NK cells expressing CD57” value [1, 10] was 0.59%±0.19, the “percentage of CD56^+ NK cells lacking SYK” value [1, 10] was 0.18%±0.06 and the “percentage of CD56^+ NK cells expressing CD57” value [1, 11] was 0.24%±0.11. For the same substance, the “percentage of CD56^+ NK cells lacking SYK” value [1, 11] was 0.07%±0.03, the “CD45RA/CD45RO phenotype of NK cells” value [2] was “skew towards a CD45RA^−CD45RO^+ phenotype” and the “decrease in PLZF expression (percentage of PLZF-negative NK cells)” value ([3]; CD56^dimCD57^−SYK^+ NK cells) was 9.93%±0.75. For the same substance, the “decrease in PLZF expression (percentage of PLZF-negative NK cells)” value ([3]; CD56^dimCD57^−SYK^− NK cells) was 7.05%±1.31.
